Source: US20220135941A1, “COMPOSITIONS AND METHODS FOR LONG TERM CULTURE OF HEPATOCYTES” (Peking University, priority 2019, published 2022)

Key:
HBV = HBV infection of 5C-PHHs; type: cell-based; conditions: for HBV products (HBsAg, HBeAg, HBV RNA, HBV DNA, cccDNA) in infected 5C-PHHs: drug treatment of HBV infected 5C-PHHs
[1] = system: interferon-stimulated genes (ISGs); experiment: ISG expression in long-term cultured 5C-PHHs; type: cell-based, human
[2] = system: primary human hepatocytes (PHHs); experiment: RNA-Seq global gene expression profiling of cultured PHHs; type: cell-based; conditions: hierarchical clustering
Excerpt: Total RNA was isolated using the RNeasy Plus Mini Kit (QIAGEN). RNA sequencing libraries were constructed using the Illumina mRNA-Seq Prep Kit (Illumina). Fragmented and randomly primed 150 bp paired-end libraries were sequenced using Illumina HiSeq 4000. Software and algorithms used for transcriptome analysis are including Cutadapt 1.16 (http://cutadapt.readthedocs.io/en/stable/guide.html), Salmon 0.8.2 (https://combinelab. github.io/salmon/), and R 3.5.0 (https://www.r-project.org). The expression profiles of HepG2, F-PHHs-3 and F-PHHs-4 were downloaded as raw data. The expression profiles of PHH 0d, hiPSC-Hep rep1, hiPSC-Hep rep2, hiPSC-Hep rep3 and hiPSC-Hep rep4 (Gordillo, et al., Development, 142:2094-2108 (2015)) were downloaded as raw sequencing reads from GEO database (GSM2817112, GSM2753376, GSM2753377, GSM2753378, GSM2753379). To compare gene expression profile between paired-end and single end libraries, we used the read1 from our generated sequencing paired-end reads. The read1 and the downloaded single-end read were trimmed to the same 40 bp length by using Cut adapt. The expression values for each sample were quantified by Salmon. Unsupervised hierarchical clustering of RNA-Seq data was generated by hclust package in R.

[3] = system: primary human hepatocytes (PHHs); experiment: PHH culture: morphology and survival; type: cell-based
Protocol: (§1) The present study was approved by the Research Ethics Committee of China-Japan Friendship Hospital (Ethical approval No: 2009-50). PHHs were obtained from human donors. Human hepatocytes were isolated from discarded human livers. A modified two-step collagenase perfusion procedure was used to isolate primary human hepatocytes from these tissues (OOtani, et al., Nat Med., 15:701-706 (2009)). Briefly, the liver tissue was perfused with PB (perfusion buffer: 0.15 M NaCl; 5 mM KCl; 25 mM NaHCO3; 5 mM Glucose; 20 mM Hepes) to remove remaining blood cells, followed by PBE (perfusion buffer plus 1 mM EDTA) perfusion. The tissue was then perfused with PBC (perfusion buffer plus 1 mg/mL collagenase type IV, 5 mM CaCl2, Gibco). All the buffers were prewarmed to 37° C. prior to the isolation process. The hepatocytes suspension was collected and washed with Williams' Medium E (Gibco), then filtered through a 40 μm Nylon cell strainer (Falcon). The isolated hepatocytes were then seeded on collagen type I-coated (Rat tail collagen type I, Gibco) plates at a density of 2.5×10^5/cm2.
(§2) Serum-free medium used for hepatocyte culture (Null): Williams' medium E containing B27 (50×, Gibco), Glutmax (Gibco) and Pen Strep (Gibco). DMSO vehicle control: Null supplemented with nearly 0.035% DMSO. […] 24 h-Cultured hepatocytes were cultured in commercial medium HCM (Lonza).

[4] = system: primary human hepatocytes (PHHs)
Protocol: as §1, §2
Total RNA was isolated using the RNeasy Micro Kit (QIAGEN). RNA was converted to cDNA using First-Strand Synthesis SuperMix for qRT-PCR (Invitrogen). PCR was carried out using Power SYBR® Green PCR Master Mix (Applied Biosystems) and performed on an MX3000P Sequence Detection System (Stratagene). The data were analyzed using the delta-delta Ct method.

HCV Jc1G = experiment: HCV infection of 5C-PHHs; type: cell-based; conditions: Gluc reporter and intracellular HCV RNA
Protocol: The Huh7.5 cell line was kindly provided by Professor Charles Rice and was routinely maintained in Dulbecco modified medium supplemented with 10% fetal bovine serum (Biological industries), 25 mM HEPES (Gibco) and Non-Essential Amino Acid (Gibco). For generating the cell cultured HCV, the plasmid encoding HCV Jc1FLAG2 (p7-nsGluc2A) (Jc1G in the text) was first linearized by XbaI digestion, and used as template for in-vitro-transcription by using MEGAscript (Invitrogen). HCVcc was generated as described previously by electroporation of the in-vitro-transcribed Jc1G RNA into Huh7.5 cells. Virus containing supernatants were harvested each day after 3 days post electroporation' and up to 7 days post electroporation. Supernatants were combined and the virus was concentrated by centrifugation using Amicon® Ultra-15 (100K) Centrifugal Filter Devices (Millipore) at 5000 g for 30 min at 4° C. The buffer was exchanged into PBS by repeated centrifugation with Amicon® Ultra-15. […]
For quantification of intracellular HCV RNA, cells were lysed in Trizol reagent (Invitrogen). […] The relative RNA levels were calculated using the 2-ΔΔCt method. […]
For quantification of luciferase activity, supernatants from each well were taken and mixed with equal volume of 2×passive lysis buffer (Promega). Luciferase activity was measured with Renilla luciferase substrate (Promega) according to manufacturer's protocol.

entecavir [ETV]
HBV products (HBsAg, HBeAg, HBV RNA, HBV DNA, cccDNA) in infected 5C-PHHs (HBV): reduction of HBV products

interferon-α [IFN-α]
cccDNA (HBV; cryopreserved PHHs cultured in 5C): significant reduction | HBV products (HBsAg, HBeAg, HBV RNA, HBV DNA, cccDNA) in infected 5C-PHHs (HBV): reduction of HBV products | interferon-stimulated genes (ISGs) expression [1]: significantly upregulated

CCCC(=O)Nc1ncnc2c1ncn2[C@@H]1O[C@@H]2COP(=O)([O-])O[C@H]2[C@H]1OC(=O)CCC.[Na+] [db-cAMP, Dibutyryl-cAMP, sodium salt]
global gene expression of PHHs when FSK is substituted [2]: replaced FSK

Forskolin [FSK]
PHH survival ([3]; combined with SB43): sustained PHH survival | EMT marker gene expression α-smooth muscle actin (ASMA) ([4]; combined with SB43, qRT-PCR at day 14): down-regulated

C[C@H](NC(=O)Cc1cc(F)cc(F)c1)C(=O)N[C@H](C(=O)OC(C)(C)C)c1ccccc1 [DAPT]
expression of EMT marker genes (COL1A1; Thy1; VIM) ([4]; added to SB43 and FSK combination): further blocked | expression of mesenchymal marker gene COL1A1 ([4]; combined with SB43 and FSK, day 14, normalized to FSK+SB43): decreased

Daclatasvir [DCV]
HCV viral replication in 5C-PHHs (HCV Jc1G): effectively blocked

Nc1ccn([C@@H]2CS[C@H](CO)O2)c(=O)n1 [LAM, lamivudine]
HBV products (HBsAg, HBeAg, HBV RNA, HBV DNA, cccDNA) in infected 5C-PHHs (HBV): reduction of HBV products

NC(=O)c1ccc(-c2nc(-c3ccc4c(c3)OCO4)c(-c3ccccn3)[nH]2)cc1 [SB43, 4-[4-(1,3-benzodioxol-5-yl)-5-(2-pyridinyl)-1H-imidazol-2-yl]benzamide]
epithelial morphology with the expression of E-cadherin ([3]; SB43 treatment, after 2 weeks): maintained an epithelial morphology | expression of EMT-associated transcription factors SNAI2, TWIST1 ([4]; SB43 alone): failed to suppress | maintaining the functional state of PHHs ([4]; blocking TGF-β signaling with SB43 alone): limited effect
